Series [1] addresses Prolyl endopeptidase, Prolyl Oligopeptidase (hPREP) (Homo sapiens (Human), UniProt P48147). Nature of the series: hPrep inhibition assay. The format is biochemical. The conditions noted are these: hPREP 0.6 nM, Z-Gly-Pro-amino-methylcoumarin 50 μM; read-out: PREP IC50. Summed up: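 Recombinant human PREP at 0.6 nM final with Z-Gly-Pro-AMC substrate at 50 μM final in Tris-HCl pH 7.5, NaCl, Triton X-100, glutathione; 15 min rt preincubation then 20 min rt reaction in dark. AMC fluorescence (ex 340/em 460 nm); IC50 from one-site dose-response fit of % inhibition.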

Another series has as its target FAP (Homo sapiens (Human), UniProt Q12884). Nature of the series: hFAP inhibition assay. Type of series: biochemical. The conditions noted are these: Ala-Pro-AMC 20 μM, n = 1 or geometric mean n = 2-3. The essentials: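 Human FAP (0.48 nM) in 100 mM Tris HCl, 100 mM NaCl, 0.05% Chaps, pH 7.4 was preincubated 15 min at rt in the dark with compounds (10-point, 3-fold series from 50 μM). Substrate was added from a 40 μM solution, then 30 min at rt. Fluorescence read at ex 340/em 460 nm; IC50 from one-site dose-response fit of % inhibition.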

A further series in a line: Caco-2 cell permeability. The conditions noted are these: human.
For series [2], the target named is human Fibroblast activation protein alpha (hFAP) (Homo sapiens (Human), UniProt Q12884). Nature of the series: hFAP inhibition assay (tight binders). Also: hFAP 2.4 pM. Type of series: biochemical. The conditions noted are these: Ala-Pro-AMC 20 μM, n = 1 or geometric mean n = 2-6. As to the method:
The plates were read on a PHERAstar® reader with excitation 340 nm and emission 460 nm. Data were analyzed in Genedata Screener®. IC50 values were determined by plotting % inhibition versus log compound concentration and using a one site dose response model.

A further series has as its target hFAP (M39-A757) (Homo sapiens (Human), UniProt Q12884). The series is described as follows: hFAP binding assay (surface plasmon resonance). The conditions noted are these: SPR, 20° C.; for hFAP Binding assay k(off) / hFAP Binding assay k(on): single cycle kinetics; for Kd: n = 1 or geometric mean n = 2-4. In general terms: Surface plasmon resonance follows binding to a sensor surface in real time, without labels.

The nature of series [3]: Metabolic stability in human liver microsomes (HLM). The conditions noted are these: human.
Description: Metabolic stability in HLM was measured as described in J Comput Aided Mol Des 2015, 29, 795.
A short description of the next series: Kinetic solubility. The conditions noted are these: kinetic from dmso stock.
The nature of series [4]: Metabolic stability in rat hepatocytes (rHep). The conditions noted are these: n = 1 or geometric mean of n = 2-3.
The mark [5] stands for this setting: HLM CLint, n = 1 or average of n = 2-3.
The mark [6] stands for this setting: Solubility, kinetic solubility, n = 1 or average of n = 2-3.

Each structure is given as a SMILES string. Converted amounts (≈) assume the structure as drawn.

Sequence of human Fibroblast activation protein alpha (hFAP) (Q12884 38-760): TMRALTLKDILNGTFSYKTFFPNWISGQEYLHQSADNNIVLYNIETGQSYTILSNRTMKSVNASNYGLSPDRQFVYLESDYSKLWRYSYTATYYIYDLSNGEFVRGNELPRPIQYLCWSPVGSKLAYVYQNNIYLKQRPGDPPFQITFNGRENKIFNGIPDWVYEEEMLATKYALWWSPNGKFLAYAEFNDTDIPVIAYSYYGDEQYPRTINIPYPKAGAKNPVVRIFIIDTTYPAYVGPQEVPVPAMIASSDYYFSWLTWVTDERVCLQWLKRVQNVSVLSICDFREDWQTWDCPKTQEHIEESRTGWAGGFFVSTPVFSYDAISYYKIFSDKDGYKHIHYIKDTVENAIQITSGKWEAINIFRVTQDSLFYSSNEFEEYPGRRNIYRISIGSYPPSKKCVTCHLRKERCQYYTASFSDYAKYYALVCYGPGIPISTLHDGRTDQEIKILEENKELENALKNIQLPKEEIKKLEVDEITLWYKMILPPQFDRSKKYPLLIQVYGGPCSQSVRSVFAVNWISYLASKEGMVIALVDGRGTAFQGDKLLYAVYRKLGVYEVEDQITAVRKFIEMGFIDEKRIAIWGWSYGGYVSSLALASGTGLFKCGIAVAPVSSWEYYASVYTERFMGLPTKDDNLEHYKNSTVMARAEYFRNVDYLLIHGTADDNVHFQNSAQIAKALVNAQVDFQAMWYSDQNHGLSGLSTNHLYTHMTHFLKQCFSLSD
Sequence of FAP (Q12884 38-760): as above
Sequence of Prolyl endopeptidase, Prolyl Oligopeptidase (hPREP) (P48147 whole entry): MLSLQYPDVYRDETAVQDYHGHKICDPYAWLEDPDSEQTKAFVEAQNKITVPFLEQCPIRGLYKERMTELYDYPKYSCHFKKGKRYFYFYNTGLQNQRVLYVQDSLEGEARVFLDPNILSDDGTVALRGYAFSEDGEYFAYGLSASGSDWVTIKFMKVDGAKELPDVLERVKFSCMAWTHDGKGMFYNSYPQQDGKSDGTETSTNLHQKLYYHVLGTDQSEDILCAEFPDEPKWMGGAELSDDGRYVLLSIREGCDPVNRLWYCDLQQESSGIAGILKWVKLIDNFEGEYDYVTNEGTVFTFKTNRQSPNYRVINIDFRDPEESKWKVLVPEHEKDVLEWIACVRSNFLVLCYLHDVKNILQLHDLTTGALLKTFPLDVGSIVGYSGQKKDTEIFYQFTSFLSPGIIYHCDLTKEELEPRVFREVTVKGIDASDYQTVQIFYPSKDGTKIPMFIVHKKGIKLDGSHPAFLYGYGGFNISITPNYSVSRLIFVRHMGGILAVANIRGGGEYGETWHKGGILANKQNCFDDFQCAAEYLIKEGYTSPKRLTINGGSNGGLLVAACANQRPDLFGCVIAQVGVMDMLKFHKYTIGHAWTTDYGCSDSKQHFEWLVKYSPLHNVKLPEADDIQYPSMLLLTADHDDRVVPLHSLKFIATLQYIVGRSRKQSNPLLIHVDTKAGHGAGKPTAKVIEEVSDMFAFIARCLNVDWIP
Sequence of hFAP (M39-A757) (Q12884 39-757): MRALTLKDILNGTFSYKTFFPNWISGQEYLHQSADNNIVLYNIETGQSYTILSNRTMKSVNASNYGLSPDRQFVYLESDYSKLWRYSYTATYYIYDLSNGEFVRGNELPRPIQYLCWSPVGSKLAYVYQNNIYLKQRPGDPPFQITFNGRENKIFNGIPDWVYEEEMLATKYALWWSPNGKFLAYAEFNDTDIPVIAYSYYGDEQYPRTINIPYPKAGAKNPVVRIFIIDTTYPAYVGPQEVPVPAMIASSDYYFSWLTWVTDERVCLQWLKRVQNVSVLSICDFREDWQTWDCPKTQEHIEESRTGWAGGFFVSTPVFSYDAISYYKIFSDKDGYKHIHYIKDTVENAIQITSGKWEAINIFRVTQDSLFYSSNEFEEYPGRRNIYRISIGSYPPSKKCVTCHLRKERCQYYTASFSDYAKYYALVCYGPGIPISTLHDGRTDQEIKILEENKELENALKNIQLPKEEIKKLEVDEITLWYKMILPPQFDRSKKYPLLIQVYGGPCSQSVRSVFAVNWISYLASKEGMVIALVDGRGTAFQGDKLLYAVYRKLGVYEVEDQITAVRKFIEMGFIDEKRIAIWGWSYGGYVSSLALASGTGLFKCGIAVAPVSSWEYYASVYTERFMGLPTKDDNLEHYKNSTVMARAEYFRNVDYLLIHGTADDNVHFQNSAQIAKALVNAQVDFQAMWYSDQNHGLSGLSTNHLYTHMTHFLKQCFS
Description for Caco-2 cell permeability: Caco-2 cell permeability was measured as described in Mol Pharm 2017, 14, 1601.
Description for Kinetic solubility: Kinetic solubility was measured as described in Comput Aided Mol Des 2015, 29, 795.

Regarding `Cc1ncccc1-c1ccc2nccc(C(=O)NCC(=O)N3CSC[C@H]3C#N)c2c1` [Example 128, (R)—N-(2-(4-Cyanothiazolidin-3-yl)-2-oxoethyl)-6-(2-methylpyridin-3-yl)-quinoline-4-carboxamide], the IC50 (in general, the midpoint of a concentration-inhibition curve) in series [1] worked out at 110 nM. This compound also returned an IC50 on FAP (hFAP […]) of 0.45 nM. Moreover, in “Caco-2 cell permeability”, the Papp A→B (as a rule, the apparent permeability from the apical to the basolateral side of a cell layer) was found to be 0.57 ×10⁻⁶ cm/s; the Papp B→A (as a rule, how fast a substance crosses the layer from the basolateral side) came out at 26 ×10⁻⁶ cm/s; the efflux ratio (as a rule, a quotient of directional permeabilities that is used to spot active efflux) worked out at 45. The compound also yielded an IC50 in series [2] of 0.24 nM. On hFAP (M39-A757), the “hFAP Binding assay k(off)” value amounted to 0.00066 s⁻¹; the “hFAP Binding assay k(on)” value was determined as 5400000 M⁻¹ s⁻¹; the Kd (as a rule, the equilibrium constant for the complex coming apart) was 0.15 nM. Moreover, the microsomal CLint (commonly the rate of metabolic loss divided by the concentration) in series [3] (setting [5]) worked out at 27 µL/min/mg. For the same compound, the solubility (in general, the dissolved amount per volume that the medium holds) in “Kinetic solubility” (setting [6]) was found to be 960 µM (≈ 401 µg/mL). Further, the “rHep CLint” value in series [4] came to 11 μL/min/1E6.
For `CO[C@H]1CCCN(c2ccc3nccc(C(=O)NCC(=O)N4CSC[C@H]4C#N)c3c2)C1` (mixture of isomers) [Example 41, N-(2-((R)-4-Cyanothiazolidin-3-yl)-2-oxoethyl)-6-((RS)-3-methoxypiperidin-1-yl)quinoline-4-carboxamide], the IC50 in series [1] is 640 nM. At FAP (hFAP 0.24 nM), this compound yielded an IC50 of 0.33 nM. For the same compound, the Papp (as a rule, the rate of passage across a membrane or cell layer, normalised by area and donor concentration) in the series “Caco-2 cell permeability” is 16 ×10⁻⁶ cm/s. Besides, the IC50 in series [2] was determined as 0.16 nM. Besides, at hFAP (M39-A757), the “hFAP Binding assay k(off)” value was found to be 0.000064 s⁻¹, the “hFAP Binding assay k(on)” value came to 680000 M⁻¹ s⁻¹ and the Kd came out at 0.093 nM. Also, the microsomal CLint in series [3] (setting [5]) was 30 µL/min/mg. The compound also had a solubility in “Kinetic solubility” (setting [6]) of 620 µM. Besides, the “rHep CLint” value in series [4] is on record as 12 μL/min/1E6.
As for `CC1(C)CCN(c2ccc3nccc(C(=O)NCC(=O)N4CSC[C@H]4C#N)c3c2)CC1` [Example 33, (R)—N-(2-(4-Cyanothiazolidin-3-yl)-2-oxoethyl)-6-(4,4-dimethylpiperidin-1-yl)quinoline-4-carboxamide], the half-inhibitory concentration (IC50) in series [1] amounted to 220 nM. In addition, the IC50 against FAP (hFAP […]) turned out to be 0.34 nM. Besides, in “Caco-2 cell permeability”, the Papp A→B was determined as 7.5 ×10⁻⁶ cm/s, the Papp B→A was found to be 19 ×10⁻⁶ cm/s and the efflux ratio amounted to 2.5. The IC50 in series [2] was determined as 0.27 nM. At hFAP (M39-A757), the “hFAP Binding assay k(off)” value is 0.000052 s⁻¹, the “hFAP Binding assay k(on)” value turned out to be 1100000 M⁻¹ s⁻¹ and the Kd is 0.059 nM. Further, the microsomal CLint in series [3] (setting [5]) came out at 92 µL/min/mg. In addition, the solubility in “Kinetic solubility” (setting [6]) was 85 µM (≈ 37.2 µg/mL). In addition, the “rHep CLint” value in series [4] is 44 μL/min/1E6.
In the case of `Cc1nc(C)c(-c2ccc3nccc(C(=O)NCC(=O)N4CSC[C@H]4C#N)c3c2)o1` [Example 215, (R)—N-(2-(4-Cyanothiazolidin-3-yl)-2-oxoethyl)-6-(2,4-dimethyloxazol-5-yl)quinoline-4-carboxamide], the IC50 in series [1] came out at 250 nM. The compound further gave an IC50 against FAP (hFAP […]) of 0.41 nM. In “Caco-2 cell permeability”, the Papp A→B was 0.48 ×10⁻⁶ cm/s, the apparent permeability from basolateral to apical (Papp B→A) was 29 ×10⁻⁶ cm/s and the efflux ratio came to 59. Further, the IC50 in series [2] stood at 0.12 nM. Moreover, on hFAP (M39-A757), the “hFAP Binding assay k(off)” value is 0.00017 s⁻¹, the “hFAP Binding assay k(on)” value worked out at 1800000 M⁻¹ s⁻¹ and binding was put at a Kd of 0.095 nM. Moreover, in series [3] (setting [5]), the microsomal CLint came to 8 µL/min/mg. The amount in solution in “Kinetic solubility” (setting [6]) (solubility) came to 350 µM (≈ 148 µg/mL). Moreover, the “rHep CLint” value in series [4] is recorded as 3.9 μL/min/1E6.
For the compound `Cc1noc(C)c1-c1ccc2nccc(C(=O)NCC(=O)N3CSC[C@H]3C#N)c2c1` [Example 216, (R)—N-(2-(4-Cyanothiazolidin-3-yl)-2-oxoethyl)-6-(3,5-dimethylisoxazol-4-yl)quinoline-4-carboxamide], in series [1], the IC50 was 190 nM. This compound displayed an IC50 on FAP (hFAP […]) of 2.4 nM. In addition, in “Caco-2 cell permeability”, the Papp A→B was found to be 0.62 ×10⁻⁶ cm/s, the Papp B→A was 40 ×10⁻⁶ cm/s and the efflux ratio is 65. This compound also displayed an IC50 in series [2] of 1.7 nM. At hFAP (M39-A757), the “hFAP Binding assay k(off)” value stood at 0.0009 s⁻¹, the “hFAP Binding assay k(on)” value stood at 5200000 M⁻¹ s⁻¹ and binding was put at a Kd of 0.27 nM. In series [3] (setting [5]), this compound gave a microsomal CLint of 58 µL/min/mg. In addition, the solubility in the series “Kinetic solubility” (setting [6]) was 710 µM (≈ 299 µg/mL). Also, the “rHep CLint” value in series [4] was 17 μL/min/1E6.
On to `N#C[C@@H]1CSCN1C(=O)CNC(=O)c1ccnc2ccc(-c3ccnc(F)c3)cc12` [Example 124, (R)—N-(2-(4-Cyanothiazolidin-3-yl)-2-oxoethyl)-6-(2-fluoropyridin-4-yl)quinoline-4-carboxamide], for which the IC50 in series [1] was determined as 220 nM. Further, the IC50 at FAP (hFAP […]) stood at 0.24 nM. Also, in the series “Caco-2 cell permeability”, the Papp A→B worked out at 0.65 ×10⁻⁶ cm/s, the Papp B→A worked out at 39 ×10⁻⁶ cm/s and the efflux ratio stood at 59. Besides, in series [2], the concentration for half-maximal inhibition (IC50) is 0.055 nM. On hFAP (M39-A757), the “hFAP Binding assay k(off)” value was 0.00028 s⁻¹, the “hFAP Binding assay k(on)” value is 3000000 M⁻¹ s⁻¹ and the Kd came to 0.094 nM. In series [3] (setting [5]), the microsomal CLint was 12 µL/min/mg. In the series “Kinetic solubility” (setting [6]), this compound displayed a solubility of 38 µM (≈ 16 µg/mL). The “rHep CLint” value in series [4] turned out to be 14 μL/min/1E6.
Take `N#C[C@@H]1CSCN1C(=O)CNC(=O)c1ccnc2ccc(N3CCCC4(CC4)C3)cc12` [Example 46, (R)—N-(2-(4-Cyanothiazolidin-3-yl)-2-oxoethyl)-6-(5-azaspiro[2.5]octan-5-yl)quinoline-4-carboxamide]: the results for the concentration for half-maximal inhibition (IC50) (in series [1]; against FAP (hFAP […]); in series [2]) were 110 nM, 0.29 nM and 0.082 nM, respectively. Further, the “hFAP Binding assay k(off)” value at hFAP (M39-A757) worked out at 0.000062 s⁻¹. Moreover, the “hFAP Binding assay k(on)” value on hFAP (M39-A757) came out at 3000000 M⁻¹ s⁻¹. The Kd on hFAP (M39-A757) was 0.02 nM. In addition, the microsomal CLint in series [3] is 190 µL/min/mg. The same compound gave a solubility in the series “Kinetic solubility” of 190 µM (≈ 82.8 µg/mL). Further, the “rHep CLint” value in series [4] is recorded as 72 μL/min/1E6.
On to `N#C[C@@H]1CSCN1C(=O)CNC(=O)c1ccnc2ccc(N3CC(C(F)(F)F)C3)cc12` [Example 26, (R)—N-(2-(4-Cyanothiazolidin-3-yl)-2-oxoethyl)-6-(3-(trifluoromethyl)-azetidin-1-yl)quinoline-4-carboxamide], for which the IC50 in series [1] was determined as 580 nM. Half-maximal inhibition on FAP (hFAP […]) (IC50) was put at 0.31 nM. It took 0.1 nM to reach half-maximal inhibition in series [2] (IC50). Further, at hFAP (M39-A757), the “hFAP Binding assay k(off)” value came to 0.000065 s⁻¹, the “hFAP Binding assay k(on)” value came out at 1300000 M⁻¹ s⁻¹ and the Kd was 0.056 nM. In series [3] (setting [5]), this compound had a microsomal CLint of 31 µL/min/mg. The compound also showed a solubility in the series “Kinetic solubility” (setting [6]) of 15 µM (≈ 6.74 µg/mL). Besides, the “rHep CLint” value in series [4] is reported as 7.6 μL/min/1E6.
As for `N#C[C@@H]1CSCN1C(=O)CNC(=O)c1ccnc2ccc(N3CC(F)(F)C3)cc12` [Example 23, (R)—N-(2-(4-Cyanothiazolidin-3-yl)-2-oxoethyl)-6-(3,3-difluoroazetidin-1-yl)quinoline-4-carboxamide], the IC50 in series [1] amounted to 160 nM. Besides, half-maximal inhibition on FAP (hFAP […]) (IC50) was put at 0.31 nM. For the same compound, the half-inhibitory concentration (IC50) in series [2] worked out at 0.2 nM. At hFAP (M39-A757), the “hFAP Binding assay k(off)” value is 0.00018 s⁻¹, the “hFAP Binding assay k(on)” value amounted to 2100000 M⁻¹ s⁻¹ and the Kd stood at 0.085 nM. In series [3] (setting [5]), this compound displayed an intrinsic metabolic clearance (microsomal CLint) of 25 µL/min/mg. The compound also registered a solubility in the series “Kinetic solubility” (setting [6]) of 63 µM (≈ 26.3 µg/mL). Besides, in series [4], the “rHep CLint” value amounted to 27 μL/min/1E6.
For `COC[C@@H]1CCCN1c1ccc2nccc(C(=O)NCC(=O)N3CSC[C@H]3C#N)c2c1` [Example 212, N-(2-((R)-4-Cyanothiazolidin-3-yl)-2-oxoethyl)-6-((S)-2-(methoxymethyl)-pyrrolidin-1-yl)quinoline-4-carboxamide], the figures for the IC50 (in series [1]; against FAP (hFAP […]); in series [2]) were 330 nM, 0.29 nM and 0.26 nM, respectively. Further, the “hFAP Binding assay k(off)” value on hFAP (M39-A757) turned out to be 0.00034 s⁻¹. At hFAP (M39-A757), the “hFAP Binding assay k(on)” value came out at 3300000 M⁻¹ s⁻¹. Besides, the Kd on hFAP (M39-A757) was 0.1 nM. Also, the microsomal CLint in series [3] (setting [5]) stood at 110 µL/min/mg. The solubility in the series “Kinetic solubility” (setting [6]) is 16 µM (≈ 7.03 µg/mL). Also, the “rHep CLint” value in series [4] stood at 57 μL/min/1E6.
